Experimental data as given in ChEMBL document CHEMBL1201862, “PubChem BioAssay data set” (2004).
Active and inactive are the calls of the source. Rule as the data show it, for most assays here: actives have a measured IC50 and inactives only a lower limit.

Columns and labels:
Protein RecA = molecular target: T1, Protein RecA (Mycobacterium tuberculosis, UniProt P9WHJ3); assay: Fluorescence Cell-Free Homogeneous Dose Retest to Identify Inhibitors of RecA-Intein Splicing Activity. [Related pubchem assays (depositor defined):AID2097, AID2223, AID489010, AID492950]; type: functional
T1 sequence (P9WHJ3 whole entry): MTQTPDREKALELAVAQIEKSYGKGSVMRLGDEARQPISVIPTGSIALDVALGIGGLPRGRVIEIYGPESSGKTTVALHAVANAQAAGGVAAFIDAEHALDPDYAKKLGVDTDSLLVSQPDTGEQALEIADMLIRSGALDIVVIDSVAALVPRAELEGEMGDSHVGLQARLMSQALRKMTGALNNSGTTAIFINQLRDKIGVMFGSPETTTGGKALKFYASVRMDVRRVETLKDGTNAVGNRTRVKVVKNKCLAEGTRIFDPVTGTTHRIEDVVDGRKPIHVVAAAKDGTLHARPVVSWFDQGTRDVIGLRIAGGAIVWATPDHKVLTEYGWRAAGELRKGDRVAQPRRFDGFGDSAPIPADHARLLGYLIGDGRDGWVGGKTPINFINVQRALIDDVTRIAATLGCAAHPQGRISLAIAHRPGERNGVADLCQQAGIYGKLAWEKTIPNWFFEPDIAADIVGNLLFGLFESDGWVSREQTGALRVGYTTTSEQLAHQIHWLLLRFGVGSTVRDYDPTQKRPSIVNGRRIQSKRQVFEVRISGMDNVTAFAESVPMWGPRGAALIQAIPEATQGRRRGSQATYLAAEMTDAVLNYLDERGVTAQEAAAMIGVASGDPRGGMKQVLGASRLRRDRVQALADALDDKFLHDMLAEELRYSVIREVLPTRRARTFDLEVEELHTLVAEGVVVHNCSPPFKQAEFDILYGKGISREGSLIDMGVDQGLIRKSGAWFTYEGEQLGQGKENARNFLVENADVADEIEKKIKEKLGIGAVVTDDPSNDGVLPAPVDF

[1] = molecular target: T2, Replicative DNA helicase DnaB (Mycobacterium tuberculosis, UniProt P9WMR3); assay: DnaB intein splicing inhibitors, dose response, biochemical, cell-free fluorescence (AID 449749); type: functional
T2 sequence (P9WMR3 whole entry): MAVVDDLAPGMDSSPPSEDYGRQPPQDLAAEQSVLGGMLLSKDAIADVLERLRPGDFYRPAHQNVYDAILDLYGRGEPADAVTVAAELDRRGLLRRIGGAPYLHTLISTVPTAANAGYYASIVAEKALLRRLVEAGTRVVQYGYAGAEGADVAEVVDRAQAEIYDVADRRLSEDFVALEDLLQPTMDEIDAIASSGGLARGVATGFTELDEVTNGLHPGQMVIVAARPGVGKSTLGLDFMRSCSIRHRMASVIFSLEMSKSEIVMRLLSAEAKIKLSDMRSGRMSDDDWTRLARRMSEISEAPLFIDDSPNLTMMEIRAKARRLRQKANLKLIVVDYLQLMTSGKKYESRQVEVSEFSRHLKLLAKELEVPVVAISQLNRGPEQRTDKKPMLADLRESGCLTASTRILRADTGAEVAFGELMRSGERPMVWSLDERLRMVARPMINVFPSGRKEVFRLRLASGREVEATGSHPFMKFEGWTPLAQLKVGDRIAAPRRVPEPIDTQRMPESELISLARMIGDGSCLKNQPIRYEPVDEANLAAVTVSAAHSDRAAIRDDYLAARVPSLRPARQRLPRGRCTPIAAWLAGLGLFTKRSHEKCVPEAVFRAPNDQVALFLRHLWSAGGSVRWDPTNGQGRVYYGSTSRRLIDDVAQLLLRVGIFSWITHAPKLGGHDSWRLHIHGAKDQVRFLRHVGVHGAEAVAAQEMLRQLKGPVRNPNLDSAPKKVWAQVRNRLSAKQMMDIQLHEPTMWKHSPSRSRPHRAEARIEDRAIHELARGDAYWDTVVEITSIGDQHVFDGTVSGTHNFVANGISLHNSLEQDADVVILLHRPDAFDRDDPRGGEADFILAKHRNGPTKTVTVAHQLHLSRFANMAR

[2] = molecular target: T3, Apoptotic protease-activating factor 1 (Homo sapiens, UniProt O14727); type: functional
T3 sequence (O14727 whole entry): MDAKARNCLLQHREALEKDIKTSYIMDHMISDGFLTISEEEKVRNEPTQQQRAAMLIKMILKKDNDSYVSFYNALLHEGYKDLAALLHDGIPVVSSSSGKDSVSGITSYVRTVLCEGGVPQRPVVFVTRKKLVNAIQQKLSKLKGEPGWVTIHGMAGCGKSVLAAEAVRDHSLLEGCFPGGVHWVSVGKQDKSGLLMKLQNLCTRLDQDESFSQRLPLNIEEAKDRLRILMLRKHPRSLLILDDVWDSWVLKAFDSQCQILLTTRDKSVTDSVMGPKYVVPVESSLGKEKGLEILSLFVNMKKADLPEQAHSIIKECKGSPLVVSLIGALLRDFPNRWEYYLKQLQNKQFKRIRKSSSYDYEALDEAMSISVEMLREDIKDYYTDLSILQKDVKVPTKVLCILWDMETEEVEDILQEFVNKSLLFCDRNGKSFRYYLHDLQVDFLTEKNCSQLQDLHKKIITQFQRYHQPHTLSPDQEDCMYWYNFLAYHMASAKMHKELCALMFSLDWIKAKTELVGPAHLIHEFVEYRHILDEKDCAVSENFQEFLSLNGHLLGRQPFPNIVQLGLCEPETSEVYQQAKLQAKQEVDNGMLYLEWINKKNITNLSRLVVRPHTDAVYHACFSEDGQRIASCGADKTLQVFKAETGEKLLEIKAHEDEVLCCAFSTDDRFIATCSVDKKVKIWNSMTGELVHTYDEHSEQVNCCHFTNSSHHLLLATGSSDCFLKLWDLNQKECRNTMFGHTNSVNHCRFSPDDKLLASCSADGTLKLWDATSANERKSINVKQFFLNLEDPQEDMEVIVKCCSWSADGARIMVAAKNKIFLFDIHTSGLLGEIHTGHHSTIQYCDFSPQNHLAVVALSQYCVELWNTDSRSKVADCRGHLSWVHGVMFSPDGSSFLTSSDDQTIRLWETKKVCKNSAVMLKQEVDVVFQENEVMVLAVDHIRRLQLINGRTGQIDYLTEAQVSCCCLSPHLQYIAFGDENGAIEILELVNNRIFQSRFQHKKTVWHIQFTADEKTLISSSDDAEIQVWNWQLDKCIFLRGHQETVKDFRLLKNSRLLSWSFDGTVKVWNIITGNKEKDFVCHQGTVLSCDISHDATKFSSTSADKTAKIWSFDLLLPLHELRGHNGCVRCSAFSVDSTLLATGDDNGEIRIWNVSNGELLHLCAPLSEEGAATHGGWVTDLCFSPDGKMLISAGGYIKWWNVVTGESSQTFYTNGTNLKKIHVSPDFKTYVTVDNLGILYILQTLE

[3] = molecular target: T4, Sentrin-specific protease 7 (Homo sapiens, UniProt Q9BQF6); type: functional;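 also: Luminescence-based dose-response confirmation of ultra-high-throughput screening hits, measuring inhibition of SENP7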
T4 sequence (Q9BQF6 whole entry): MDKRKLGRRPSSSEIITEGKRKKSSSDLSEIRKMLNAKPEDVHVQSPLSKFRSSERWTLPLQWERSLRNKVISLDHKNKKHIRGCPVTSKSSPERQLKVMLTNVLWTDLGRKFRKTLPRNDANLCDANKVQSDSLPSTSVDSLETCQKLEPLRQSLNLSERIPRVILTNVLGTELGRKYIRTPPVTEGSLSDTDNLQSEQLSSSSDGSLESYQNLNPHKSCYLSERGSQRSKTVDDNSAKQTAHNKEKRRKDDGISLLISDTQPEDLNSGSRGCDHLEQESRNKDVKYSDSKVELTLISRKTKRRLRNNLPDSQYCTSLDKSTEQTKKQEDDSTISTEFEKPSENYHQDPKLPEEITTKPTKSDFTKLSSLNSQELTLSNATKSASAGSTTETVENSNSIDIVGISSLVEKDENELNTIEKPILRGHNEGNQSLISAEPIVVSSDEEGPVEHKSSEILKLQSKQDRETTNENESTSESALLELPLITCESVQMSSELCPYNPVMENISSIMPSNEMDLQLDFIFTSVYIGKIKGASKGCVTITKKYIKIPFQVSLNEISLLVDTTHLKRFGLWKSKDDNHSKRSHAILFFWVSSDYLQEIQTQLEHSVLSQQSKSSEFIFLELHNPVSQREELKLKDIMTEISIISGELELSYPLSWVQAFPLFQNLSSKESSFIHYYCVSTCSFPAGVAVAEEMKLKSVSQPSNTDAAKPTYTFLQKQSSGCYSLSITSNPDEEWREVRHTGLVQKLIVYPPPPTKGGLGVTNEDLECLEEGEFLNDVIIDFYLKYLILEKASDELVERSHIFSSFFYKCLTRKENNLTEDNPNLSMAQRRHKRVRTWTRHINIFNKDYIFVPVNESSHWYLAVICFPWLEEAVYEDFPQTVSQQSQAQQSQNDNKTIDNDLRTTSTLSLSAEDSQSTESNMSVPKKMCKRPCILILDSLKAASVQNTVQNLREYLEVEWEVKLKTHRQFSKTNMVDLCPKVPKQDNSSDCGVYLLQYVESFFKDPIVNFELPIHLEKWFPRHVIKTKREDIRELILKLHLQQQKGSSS

[4] = molecular target: T5, Sentrin-specific protease 8 (Homo sapiens, UniProt Q96LD8); type: functional;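 also: luminescence read-out of SENP8 inhibition, dose-response confirmation following an ultra-high-throughput screen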
T5 sequence (Q96LD8 whole entry): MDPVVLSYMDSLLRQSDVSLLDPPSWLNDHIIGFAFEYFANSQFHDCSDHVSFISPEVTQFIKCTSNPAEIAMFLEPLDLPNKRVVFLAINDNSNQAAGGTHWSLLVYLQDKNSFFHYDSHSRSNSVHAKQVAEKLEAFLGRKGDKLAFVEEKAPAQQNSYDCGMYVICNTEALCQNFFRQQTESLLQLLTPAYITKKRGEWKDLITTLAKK

[5] = molecular target: T6, Sentrin-specific protease 6 (Homo sapiens, UniProt Q9GZR1); type: functional;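 also: Luminescence-based dose-response confirmatory assay of SENP6 inhibition, following up an ultra-high-throughput screen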
T6 sequence (Q9GZR1 whole entry): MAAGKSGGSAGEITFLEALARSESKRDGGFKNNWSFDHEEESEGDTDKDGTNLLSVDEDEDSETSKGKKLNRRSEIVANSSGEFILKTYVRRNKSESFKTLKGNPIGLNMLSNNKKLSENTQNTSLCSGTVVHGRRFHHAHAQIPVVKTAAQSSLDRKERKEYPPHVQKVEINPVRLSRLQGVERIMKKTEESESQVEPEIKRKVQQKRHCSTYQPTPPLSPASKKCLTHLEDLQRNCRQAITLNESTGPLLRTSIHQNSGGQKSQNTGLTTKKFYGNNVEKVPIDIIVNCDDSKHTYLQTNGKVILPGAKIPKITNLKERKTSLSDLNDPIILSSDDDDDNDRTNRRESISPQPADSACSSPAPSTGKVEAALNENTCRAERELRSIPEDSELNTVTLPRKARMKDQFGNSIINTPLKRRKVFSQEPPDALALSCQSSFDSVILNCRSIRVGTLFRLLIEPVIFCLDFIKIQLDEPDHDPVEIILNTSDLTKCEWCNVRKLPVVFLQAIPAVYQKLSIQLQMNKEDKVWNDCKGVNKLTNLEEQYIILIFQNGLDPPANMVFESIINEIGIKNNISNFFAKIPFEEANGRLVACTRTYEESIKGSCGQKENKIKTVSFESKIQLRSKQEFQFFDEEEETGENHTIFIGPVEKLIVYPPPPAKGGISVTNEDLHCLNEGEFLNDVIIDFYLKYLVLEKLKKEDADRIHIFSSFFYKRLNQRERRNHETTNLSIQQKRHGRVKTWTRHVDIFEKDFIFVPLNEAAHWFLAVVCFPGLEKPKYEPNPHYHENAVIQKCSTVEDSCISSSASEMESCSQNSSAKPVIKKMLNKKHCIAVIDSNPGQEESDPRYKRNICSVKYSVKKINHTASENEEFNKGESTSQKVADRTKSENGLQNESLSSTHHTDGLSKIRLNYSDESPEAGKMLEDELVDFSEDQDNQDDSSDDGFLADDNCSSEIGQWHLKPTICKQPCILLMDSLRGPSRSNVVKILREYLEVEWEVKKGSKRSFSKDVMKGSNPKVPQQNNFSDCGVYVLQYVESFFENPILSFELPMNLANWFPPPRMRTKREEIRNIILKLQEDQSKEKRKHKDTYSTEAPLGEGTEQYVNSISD

Caspase-3 = molecular target: T7, Caspase-3 (Homo sapiens, UniProt P42574); type: functional;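 also: Dose-response selectivity test against caspase-3 for candidate inhibitors of sentrin-specific proteases (SENPs)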
T7 sequence (P42574 whole entry): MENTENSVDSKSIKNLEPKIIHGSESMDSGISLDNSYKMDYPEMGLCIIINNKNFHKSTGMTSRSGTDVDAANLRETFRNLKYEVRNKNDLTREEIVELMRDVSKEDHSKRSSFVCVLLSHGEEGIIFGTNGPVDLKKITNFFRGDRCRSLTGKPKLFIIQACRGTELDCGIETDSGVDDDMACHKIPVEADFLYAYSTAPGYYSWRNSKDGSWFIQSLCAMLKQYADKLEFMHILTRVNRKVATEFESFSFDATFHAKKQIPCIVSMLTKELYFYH

[6] = molecular target: T8, Oxysterols receptor LXR-beta (Homo sapiens, UniProt P55055); type: functional, cell-based;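 also: Cell-based luminescence dose-response assay of agonist activity at LXR, run as a confirmatory counterscreen to a daf-12 agonist screen; HEK293 cells with Gal4-LXR fusion and GAL4-driven luciferase reporter; agonist potency from rising luciferase signal of a Gal4-LXR reporter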
T8 sequence (P55055 whole entry): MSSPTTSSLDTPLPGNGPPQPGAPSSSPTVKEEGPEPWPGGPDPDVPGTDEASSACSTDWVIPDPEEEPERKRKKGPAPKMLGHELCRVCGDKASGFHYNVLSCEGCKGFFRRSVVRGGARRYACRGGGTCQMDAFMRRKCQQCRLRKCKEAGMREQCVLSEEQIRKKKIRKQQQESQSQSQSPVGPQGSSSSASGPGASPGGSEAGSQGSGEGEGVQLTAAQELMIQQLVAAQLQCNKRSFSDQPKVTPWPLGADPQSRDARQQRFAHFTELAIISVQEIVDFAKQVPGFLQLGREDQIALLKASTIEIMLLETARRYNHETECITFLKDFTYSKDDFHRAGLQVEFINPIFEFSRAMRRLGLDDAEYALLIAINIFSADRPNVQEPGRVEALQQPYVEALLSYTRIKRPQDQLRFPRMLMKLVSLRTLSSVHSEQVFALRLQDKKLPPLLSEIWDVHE

SMILES | EC50 (Protein RecA) | AC50 [1] | IC50 [2] | IC50 [3] | IC50 [4] | EC50 (cells) | IC50 [5] | IC50 (Caspase-3) | EC50 [6]
CCCc1n[nH]c2c1C(c1ccc(OC)c(CSC3=NCCS3)c1)C(C#N)=C(N)O2 (centres undefined) | 4.56 µM (active) | 2.99 µM (active) | 23.9 µM (active) |  |  |  |  |  | 
C(=N\Nc1ccccc1)/c1nc2ccccc2s1 |  |  |  | 1.6 µM (active) | > 100 µM (inactive) | > 67.5 µM (inactive) | > 100 µM (inactive) | 26 µM (active) | > 67.5 µM (inactive)
